In ChEMBL document CHEMBL1201862, “PubChem BioAssay data set” (2004):
The source made the active and inactive calls.

Columns and labels:
[1] = target: Peroxisome proliferator-activated receptor gamma/Nuclear receptor coactivator 1 (Homo sapiens, UniProt P37231); test: TR-FRET dose response biochemical High Throughput Screening assay for agonists of the steroid receptor coactivator 1 (SRC-1) recruitment by the peroxisome proliferator-activated receptor gamma (PPAR gamma): non-selective agonists. [Related pubchem assays (depositor defined):AID1300, AID1808, AID504735, AID631]; assay type: protein assay
[2] = target: Peroxisome proliferator-activated receptor gamma/Nuclear receptor coactivator 3 (Homo sapiens, UniProt P37231); test: TR-FRET dose response biochemical High Throughput Screening assay for agonists of the steroid receptor coactivator 3 (SRC-3) recruitment by the peroxisome proliferator-activated receptor gamma (PPAR gamma): non-selective agonists. [Related pubchem assays: 1301 (Confirmation screen.), 1048 (Primary screen.)]; assay type: functional
Chain of Peroxisome proliferator-activated receptor gamma/Nuclear receptor coactivator 3 (P37231 whole entry): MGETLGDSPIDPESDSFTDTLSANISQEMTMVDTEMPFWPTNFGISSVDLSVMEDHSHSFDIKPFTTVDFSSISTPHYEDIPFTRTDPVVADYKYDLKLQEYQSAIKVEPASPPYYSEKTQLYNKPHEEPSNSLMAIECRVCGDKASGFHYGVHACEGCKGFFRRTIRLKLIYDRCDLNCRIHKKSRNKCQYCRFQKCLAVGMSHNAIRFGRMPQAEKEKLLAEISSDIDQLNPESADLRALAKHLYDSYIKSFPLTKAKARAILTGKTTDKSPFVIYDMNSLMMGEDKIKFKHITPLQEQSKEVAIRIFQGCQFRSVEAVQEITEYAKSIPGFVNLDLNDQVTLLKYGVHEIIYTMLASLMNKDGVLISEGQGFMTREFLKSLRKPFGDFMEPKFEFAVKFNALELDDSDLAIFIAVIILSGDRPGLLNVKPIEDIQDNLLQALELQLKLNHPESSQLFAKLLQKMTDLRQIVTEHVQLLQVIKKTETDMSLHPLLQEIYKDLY
Chain of Peroxisome proliferator-activated receptor gamma/Nuclear receptor coactivator 3 (Q9Y6Q9 whole entry, further chain): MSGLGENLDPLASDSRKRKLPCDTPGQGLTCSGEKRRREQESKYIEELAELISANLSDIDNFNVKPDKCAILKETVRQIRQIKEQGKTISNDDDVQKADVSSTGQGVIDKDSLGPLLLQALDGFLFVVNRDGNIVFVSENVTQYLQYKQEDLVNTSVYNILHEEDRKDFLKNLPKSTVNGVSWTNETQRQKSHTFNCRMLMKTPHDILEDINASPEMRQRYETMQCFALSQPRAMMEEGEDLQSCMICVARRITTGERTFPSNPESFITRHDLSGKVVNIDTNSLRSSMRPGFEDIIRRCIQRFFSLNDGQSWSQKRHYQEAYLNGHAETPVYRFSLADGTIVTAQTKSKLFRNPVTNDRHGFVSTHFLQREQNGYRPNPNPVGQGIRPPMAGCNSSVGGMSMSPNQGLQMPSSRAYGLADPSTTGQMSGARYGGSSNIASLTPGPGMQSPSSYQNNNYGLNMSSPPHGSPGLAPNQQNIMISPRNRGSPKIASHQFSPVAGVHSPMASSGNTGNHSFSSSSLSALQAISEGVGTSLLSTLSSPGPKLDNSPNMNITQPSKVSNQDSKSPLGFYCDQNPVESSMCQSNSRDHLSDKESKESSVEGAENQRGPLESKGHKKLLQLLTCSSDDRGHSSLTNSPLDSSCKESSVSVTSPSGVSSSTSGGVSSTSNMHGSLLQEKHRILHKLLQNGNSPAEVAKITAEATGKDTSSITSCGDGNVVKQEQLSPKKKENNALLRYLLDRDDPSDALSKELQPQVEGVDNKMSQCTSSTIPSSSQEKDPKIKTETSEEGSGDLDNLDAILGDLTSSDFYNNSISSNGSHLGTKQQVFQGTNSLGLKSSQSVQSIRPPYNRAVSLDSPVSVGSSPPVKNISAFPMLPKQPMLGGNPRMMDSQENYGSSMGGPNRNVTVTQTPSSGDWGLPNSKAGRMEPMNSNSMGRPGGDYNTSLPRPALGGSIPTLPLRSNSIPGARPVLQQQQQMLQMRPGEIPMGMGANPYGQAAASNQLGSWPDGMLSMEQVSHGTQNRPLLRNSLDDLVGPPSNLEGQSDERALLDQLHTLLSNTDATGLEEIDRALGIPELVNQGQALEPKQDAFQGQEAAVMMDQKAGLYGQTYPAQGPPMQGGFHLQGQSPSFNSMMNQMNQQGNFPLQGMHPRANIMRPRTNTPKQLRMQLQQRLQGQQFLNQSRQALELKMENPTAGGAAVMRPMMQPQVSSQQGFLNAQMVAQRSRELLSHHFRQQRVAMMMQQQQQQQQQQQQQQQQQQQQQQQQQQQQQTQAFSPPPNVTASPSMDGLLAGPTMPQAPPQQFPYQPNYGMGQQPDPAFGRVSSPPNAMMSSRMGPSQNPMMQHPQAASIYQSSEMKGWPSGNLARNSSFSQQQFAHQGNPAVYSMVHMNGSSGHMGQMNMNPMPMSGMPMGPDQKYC

[3] = target: Peroxisome proliferator-activated receptor gamma/Nuclear receptor coactivator 2 (Homo sapiens, UniProt P37231); test: TR-FRET dose response biochemical High Throughput Screening assay for agonists of the steroid receptor coactivator 2 (SRC-2) recruitment by the peroxisome proliferator-activated receptor gamma (PPAR gamma): non-selective agonists. [Related pubchem assays: 1297, 1032 ]; assay type: functional
Chain of Peroxisome proliferator-activated receptor gamma/Nuclear receptor coactivator 2 (P37231 whole entry): as the sequence (P37231 whole entry) above
Chain of Peroxisome proliferator-activated receptor gamma/Nuclear receptor coactivator 2 (Q15596 whole entry, further chain): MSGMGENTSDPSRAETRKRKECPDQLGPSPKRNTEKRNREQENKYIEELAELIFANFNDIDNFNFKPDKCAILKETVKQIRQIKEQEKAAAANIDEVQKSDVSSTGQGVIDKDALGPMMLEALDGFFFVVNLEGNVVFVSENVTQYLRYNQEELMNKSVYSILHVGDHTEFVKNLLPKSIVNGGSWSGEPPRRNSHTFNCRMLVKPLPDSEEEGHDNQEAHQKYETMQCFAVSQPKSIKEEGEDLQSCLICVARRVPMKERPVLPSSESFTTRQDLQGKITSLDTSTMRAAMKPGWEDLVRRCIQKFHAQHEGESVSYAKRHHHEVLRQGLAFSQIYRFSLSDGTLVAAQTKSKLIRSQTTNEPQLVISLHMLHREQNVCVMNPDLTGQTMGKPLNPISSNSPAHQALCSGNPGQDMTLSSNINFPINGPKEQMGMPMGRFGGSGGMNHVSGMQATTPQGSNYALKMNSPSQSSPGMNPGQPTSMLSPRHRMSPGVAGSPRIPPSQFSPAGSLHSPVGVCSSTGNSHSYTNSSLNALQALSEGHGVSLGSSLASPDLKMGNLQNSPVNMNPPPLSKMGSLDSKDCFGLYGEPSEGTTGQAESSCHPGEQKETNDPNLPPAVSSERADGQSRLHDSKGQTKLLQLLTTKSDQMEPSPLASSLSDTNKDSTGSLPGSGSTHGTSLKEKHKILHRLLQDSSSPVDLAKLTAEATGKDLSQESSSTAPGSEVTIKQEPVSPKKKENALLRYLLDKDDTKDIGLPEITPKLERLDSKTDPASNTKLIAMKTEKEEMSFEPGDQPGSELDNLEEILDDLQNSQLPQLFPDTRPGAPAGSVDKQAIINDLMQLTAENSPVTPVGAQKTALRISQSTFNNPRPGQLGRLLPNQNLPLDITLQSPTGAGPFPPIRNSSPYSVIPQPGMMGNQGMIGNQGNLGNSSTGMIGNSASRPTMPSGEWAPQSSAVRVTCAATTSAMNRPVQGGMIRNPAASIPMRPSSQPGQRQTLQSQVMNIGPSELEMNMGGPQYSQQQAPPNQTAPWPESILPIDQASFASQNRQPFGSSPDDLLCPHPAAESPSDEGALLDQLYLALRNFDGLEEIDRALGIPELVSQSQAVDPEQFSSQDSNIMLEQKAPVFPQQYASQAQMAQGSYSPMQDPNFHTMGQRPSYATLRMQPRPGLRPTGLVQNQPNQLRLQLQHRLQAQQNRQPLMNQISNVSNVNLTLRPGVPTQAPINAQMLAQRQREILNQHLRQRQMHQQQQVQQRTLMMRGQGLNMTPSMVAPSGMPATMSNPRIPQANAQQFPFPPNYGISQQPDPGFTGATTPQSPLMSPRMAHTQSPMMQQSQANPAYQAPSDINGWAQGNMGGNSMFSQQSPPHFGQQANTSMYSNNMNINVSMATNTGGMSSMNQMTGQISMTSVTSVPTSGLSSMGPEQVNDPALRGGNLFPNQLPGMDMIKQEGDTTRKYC

[4] = target: T1, Apoptotic protease-activating factor 1 (Homo sapiens, UniProt O14727); assay type: functional
T1 sequence (O14727 whole entry): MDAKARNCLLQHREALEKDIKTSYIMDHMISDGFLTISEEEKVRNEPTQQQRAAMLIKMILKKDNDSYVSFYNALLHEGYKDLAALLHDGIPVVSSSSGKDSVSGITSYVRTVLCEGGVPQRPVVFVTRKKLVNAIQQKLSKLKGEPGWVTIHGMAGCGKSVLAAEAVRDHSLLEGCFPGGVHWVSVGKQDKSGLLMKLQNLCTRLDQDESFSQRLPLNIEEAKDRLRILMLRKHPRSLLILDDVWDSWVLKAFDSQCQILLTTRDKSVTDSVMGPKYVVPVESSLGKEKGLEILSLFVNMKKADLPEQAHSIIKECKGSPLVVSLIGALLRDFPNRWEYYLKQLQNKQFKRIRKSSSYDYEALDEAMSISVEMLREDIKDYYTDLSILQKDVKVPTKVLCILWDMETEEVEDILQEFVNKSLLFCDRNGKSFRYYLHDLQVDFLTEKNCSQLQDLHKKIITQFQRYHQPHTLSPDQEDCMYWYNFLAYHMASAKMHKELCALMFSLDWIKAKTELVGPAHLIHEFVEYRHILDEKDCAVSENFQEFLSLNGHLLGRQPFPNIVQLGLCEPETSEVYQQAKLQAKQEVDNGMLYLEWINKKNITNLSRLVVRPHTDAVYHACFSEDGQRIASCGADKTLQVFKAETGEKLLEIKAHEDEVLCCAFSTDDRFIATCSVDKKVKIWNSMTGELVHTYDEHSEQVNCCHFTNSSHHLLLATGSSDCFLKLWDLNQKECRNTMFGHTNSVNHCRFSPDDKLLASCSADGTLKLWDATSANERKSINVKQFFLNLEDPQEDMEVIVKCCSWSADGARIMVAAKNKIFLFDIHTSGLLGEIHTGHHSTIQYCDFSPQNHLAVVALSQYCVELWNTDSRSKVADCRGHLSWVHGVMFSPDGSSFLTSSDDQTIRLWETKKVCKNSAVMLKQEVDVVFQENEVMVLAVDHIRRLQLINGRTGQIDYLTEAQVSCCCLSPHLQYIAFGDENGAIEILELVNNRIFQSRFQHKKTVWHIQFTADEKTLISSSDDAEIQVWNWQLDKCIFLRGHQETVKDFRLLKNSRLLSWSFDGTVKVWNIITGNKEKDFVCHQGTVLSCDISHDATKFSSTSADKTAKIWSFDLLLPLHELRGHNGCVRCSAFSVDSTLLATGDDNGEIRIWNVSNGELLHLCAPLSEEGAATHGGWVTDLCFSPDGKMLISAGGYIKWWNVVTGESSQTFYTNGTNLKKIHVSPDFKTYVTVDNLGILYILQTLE

[5] = Shn3 3'UTR reporter inhibitors, dose response, cell-based, Clone20 osteoblasts, firefly luciferase, cherry-picked (AID 624132); assay type: functional;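 further: firefly luciferase luminescence from reporter carrying the Shn3 3'UTR in osteoblasts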
[6] = control 3'UTR Renilla luciferase suppression, dose response, counter-screen for Shn3 inhibitor project, cell-based, Clone20-Shn3RL, cherry-picked (AID 624133); assay type: functional
Vero [7] = test: cells; assay type: functional, cell-based; conditions: Chlorocebus sabaeus
Vero [8] = test: cells; assay type: functional; conditions: Chlorocebus sabaeus
[9] = NIH-3T3 fibroblast cytotoxicity, dose response, cytotoxicity control, cell-based, fluorescence, Alamar Blue, secondary assay (AID 2327); assay type: functional;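 further: NIH-3T3 mouse fibroblasts cultured with fluconazole at 8 µg/mL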
[10] = C. albicans growth with fluconazole, confirmation, fluorescence, retest (AID 2467); assay type: functional, cell-based
[11] = inhibitors of intracellular T. cruzi replication, confirmation, NIH3T3 host cells, beta-gal luminescence (AID 2044); assay type: functional, cell-based;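 further: intracellular parasites grown in NIH/3T3 mouse fibroblasts as host cells; luminescent beta-galactosidase reporter signal from transgenic T. cruzi replicating inside host cells; inhibitors lower the luminescence signal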
[12] = growth suppression of PTEN-null colon cells, dose response, cell-based, HCT116 PTEN knockout (AID 1047); assay type: functional;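 further: HCT116 colon tumor cells with PTEN knocked out; cells exposed to compound for 60 hours before readout; potency for loss of cell viability measured by luminescence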
[13] = cytotoxicity toward NIH3T3 fibroblasts, dose response, counter-screen, cell-based, ATP luminescence, mouse fibroblasts (AID 2010); assay type: functional;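 further: cells exposed to compound for about 90 hours before reading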
[14] = growth suppression of beta-catenin-knockout colon cells, dose response, cell-based, HCT116, human colon tumor (AID 1045); assay type: functional;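 further: HCT116 colon tumor cells with beta catenin knocked out; cells exposed to compound for 60 hours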
Bcl-2-related protein A1 = target: T2, Bcl-2-related protein A1 (Mus musculus, UniProt Q07440); assay type: functional;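 further: confirmatory dose–response counterscreen on Bfl-1, used to check hits from a UBC13 polyubiquitin inhibitor campaign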
T2 sequence (Q07440 whole entry): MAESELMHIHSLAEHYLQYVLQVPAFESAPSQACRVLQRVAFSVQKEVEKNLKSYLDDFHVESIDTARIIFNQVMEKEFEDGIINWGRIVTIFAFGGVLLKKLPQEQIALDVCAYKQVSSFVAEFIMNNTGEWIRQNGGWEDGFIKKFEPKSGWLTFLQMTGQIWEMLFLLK

[15] = target: T3, Ubiquitin-conjugating enzyme E2 N (Homo sapiens, UniProt P61088); assay type: functional
T3 sequence (P61088 whole entry): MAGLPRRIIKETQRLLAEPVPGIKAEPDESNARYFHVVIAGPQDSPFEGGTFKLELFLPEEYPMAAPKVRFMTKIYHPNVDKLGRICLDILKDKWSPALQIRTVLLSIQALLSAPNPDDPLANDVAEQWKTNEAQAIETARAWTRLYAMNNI

Beta-galactosidase = Beta-galactosidase (Escherichia coli, UniProt Q8VNN2); test: beta-galactosidase enzyme inhibitors and activators, dose response, artefact control for CCR6 antagonist project, biochemical, E. coli enzyme, set 3 (AID 504712); assay type: functional
[16] = target: T3, Ubiquitin-conjugating enzyme E2 N; assay type: functional; remark: listed apart in the source
HEK293 [17] = test: NOD1 signaling inhibitors, primary screen, cell-based, luminescence, uHTS (AID 1578); assay type: functional; conditions: Homo sapiens
HEK293 [18] = test: cells; assay type: functional, cell-based; conditions: Homo sapiens
HEK293 [19] = test: cells; assay type: functional, cell-based; conditions: Homo sapiens; remark: listed apart in the source
[20] = target: Nucleotide-binding oligomerization domain-containing protein 2 (Homo sapiens, UniProt Q9HC29); test: NOD2 signaling inhibitors, cell-based, luminescence, uHTS, HEK293 (AID 1566); assay type: functional
HEK293 [21] = test: NOD2 signaling inhibitors in MDP-stimulated cells, cell-based, uHTS, luminescence (AID 2001); assay type: functional; conditions: Homo sapiens
HEK293 [22] = test: cells; assay type: functional, cell-based; conditions: Homo sapiens; remark: listed apart in the source
[23] = target: Beta-2 adrenergic receptor (Homo sapiens, UniProt P07550); test: beta2AR agonists driving receptor internalization, dose response, cell-based, FAP fluorogen, flow cytometry, cherry pick 1 (AID 588763); assay type: functional
Cytochrome P450 3A4 = Cytochrome P450 3A4 (Homo sapiens, UniProt P08684);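 further: CYP3A4 tested as one member of a cytochrome P450 panel screen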
Chain of Cytochrome P450 3A4 (P08684 whole entry): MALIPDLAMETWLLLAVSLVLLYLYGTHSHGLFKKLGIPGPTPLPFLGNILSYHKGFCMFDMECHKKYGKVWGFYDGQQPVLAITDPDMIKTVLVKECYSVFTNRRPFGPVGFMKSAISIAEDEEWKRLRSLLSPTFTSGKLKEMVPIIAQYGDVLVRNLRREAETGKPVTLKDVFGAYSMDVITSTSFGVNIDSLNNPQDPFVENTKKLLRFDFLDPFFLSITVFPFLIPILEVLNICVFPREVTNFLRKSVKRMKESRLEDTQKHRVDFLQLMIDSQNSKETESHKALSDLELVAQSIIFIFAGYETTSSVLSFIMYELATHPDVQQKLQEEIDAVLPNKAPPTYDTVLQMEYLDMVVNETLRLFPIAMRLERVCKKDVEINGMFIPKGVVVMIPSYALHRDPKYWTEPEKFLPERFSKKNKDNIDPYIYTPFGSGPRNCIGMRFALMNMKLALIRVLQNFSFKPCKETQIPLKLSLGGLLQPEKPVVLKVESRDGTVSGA

Cytochrome P450 2D6 = Cytochrome P450 2D6 (Homo sapiens, UniProt P10635);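 further: CYP2D6 member of a cytochrome P450 panel assay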
Chain of Cytochrome P450 2D6 (P10635 whole entry): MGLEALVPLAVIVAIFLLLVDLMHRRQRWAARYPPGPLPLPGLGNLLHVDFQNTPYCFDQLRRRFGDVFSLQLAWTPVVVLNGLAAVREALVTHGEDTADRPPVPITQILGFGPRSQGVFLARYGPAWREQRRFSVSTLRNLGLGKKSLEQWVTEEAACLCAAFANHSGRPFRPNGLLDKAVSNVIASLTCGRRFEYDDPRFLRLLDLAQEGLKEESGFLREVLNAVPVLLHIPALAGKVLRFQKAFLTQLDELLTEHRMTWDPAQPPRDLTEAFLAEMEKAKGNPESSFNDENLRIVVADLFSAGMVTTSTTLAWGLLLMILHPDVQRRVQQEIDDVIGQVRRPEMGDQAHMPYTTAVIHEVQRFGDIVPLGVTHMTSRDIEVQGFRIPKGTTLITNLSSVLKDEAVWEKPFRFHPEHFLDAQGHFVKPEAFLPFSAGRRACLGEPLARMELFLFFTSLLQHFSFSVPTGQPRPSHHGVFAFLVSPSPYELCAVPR

[24] = Luminescent dose response cell-based high throughput screening assay for inhibitors of the Janus kinase 2 mutant JAK2V617F. [Related pubchem assays: 1446 (Primary screen.), 1521 (Confirmation assay.), 1486 (Counter screen.)]; assay type: functional
[25] = target: T4, Microphthalmia-associated transcription factor (Homo sapiens, UniProt O75030); test: TRPM1 promoter luciferase signal decrease, dose response, MITF inhibitor project, cell-based, SK-MEL-5, cherry-picked, set 3 (AID 493073); assay type: functional
T4 sequence (O75030 whole entry): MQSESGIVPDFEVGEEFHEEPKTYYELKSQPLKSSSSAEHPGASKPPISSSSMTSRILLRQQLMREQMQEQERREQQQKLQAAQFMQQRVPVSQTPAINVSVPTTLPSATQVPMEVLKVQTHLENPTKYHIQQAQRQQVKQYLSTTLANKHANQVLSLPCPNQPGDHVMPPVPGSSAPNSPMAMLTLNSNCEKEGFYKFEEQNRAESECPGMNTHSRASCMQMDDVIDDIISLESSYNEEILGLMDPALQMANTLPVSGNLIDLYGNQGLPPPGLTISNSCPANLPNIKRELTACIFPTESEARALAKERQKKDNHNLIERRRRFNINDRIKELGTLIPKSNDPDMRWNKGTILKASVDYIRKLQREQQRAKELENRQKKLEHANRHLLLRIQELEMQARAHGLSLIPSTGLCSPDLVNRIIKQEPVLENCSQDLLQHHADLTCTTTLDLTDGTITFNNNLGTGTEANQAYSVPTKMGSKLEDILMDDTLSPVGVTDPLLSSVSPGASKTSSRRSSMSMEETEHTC

INS1 = test: beta cell apoptosis inhibitors, cytokine rescue, dose response, luminescence, retest (AID 449756); assay type: functional, cell-based; conditions: Rattus norvegicus;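 further: cell death triggered by IL-1 beta plus TNF-alpha plus IFN-gamma mixture; protective hits raise ATP signal compared with cytokine alone wells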
A-375 = test: A375 melanoma cell viability reduction, dose response, counter-screen for MITF modulator project, cherry-pick samples, set 2 (AID 540335); assay type: functional, cell-based; conditions: Homo sapiens
[26] = target: Voltage-dependent T-type calcium channel subunit alpha-1H (Homo sapiens, UniProt O95180); assay type: functional;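 further: channel activity triggered by adding a high calcium stimulation buffer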
Escherichia coli [27] = test: microbe, parasite or virus in culture
Escherichia coli [28] = test: microbe, parasite or virus in culture; remark: listed apart in the source
[29] = inhibitors of firefly luciferase expression or activity, dose response, H4 neuroglioma cells, luminescence (AID 1990); assay type: functional, cell-based
cells [30] = assay type: functional, cell-based
[31] = Luminescence Cell-Based Dose Response HTS to Identify Inhibitors of 5'UTR Stem-Loop Driven Prion Protein mRNA Translation in H4 Neuroglioblastoma Cells. [Related pubchem assays: 1827 (Project Summary), 1813 (Primary HTS)]; assay type: functional
[32] = inhibitors of SNCA 5'UTR-driven reporter translation, confirmation, H4 neuroglioma cells, luminescence (AID 1988); assay type: functional, cell-based
cells [33] = assay type: functional, cell-based; remark: listed apart in the source

SMILES: CS(=O)(=O)c1nc(-c2ccc(Br)cc2)cc(-c2ccccc2)c1C#N
- EC50 [1]: 7.5 µM (active)
- EC50 [2]: > 79.4 µM (not active)
- EC50 [3]: 8.09 µM (active)
- IC50 [4]: 2.07 µM (active)
- AC50 [5]: 4.72 µM (active)
- AC50 [6]: 6.77 µM (active)

SMILES: Cc1ccc(S(=O)(=O)n2cccc2/C=C/[N+](=O)[O-])cc1
- IC50 (Vero [7]): > 25 µM (active)
- CC50 (Vero [8]): 9.49 µM (active)

SMILES: N=C(N)N/N=C/c1ccc(OCc2ccc(Cl)cc2)cc1
- EC50 [9]: > 150 µM (inactive)
- EC50 [10]: > 38 µM (not active)
- EC50 [11]: 1.93 µM (active)
- EC50 [12]: 3.74 µM (active)
- EC50 [13]: > 60 µM (inconclusive)
- EC50 [14]: 3.25 µM (active)
- IC50 (Bcl-2-related protein A1): > 20 µM (inactive)
- IC50 [15]: 13 µM (active)
- IC50 (Beta-galactosidase): > 66.6 µM (inactive)
- IC50 [16]: 12.4 µM (active)

SMILES: O=S(=O)(Nc1cccc(-c2cn3cccnc3n2)c1)c1ccc(-c2ccccc2)cc1
- EC50 (HEK293 [17]): 8.6 µM (active)
- IC50 (HEK293 [18]): 6.52 µM (active)
- IC50 (HEK293 [19]): 14.5 µM (active)
- EC50 [20]: 10.3 µM (active)
- IC50 (HEK293 [21]): 6.98 µM (active)
- IC50 (HEK293 [22]): > 20 µM (inactive)
- EC50 [23]: 4.33 µM (active)

SMILES: OC[C@@H]1O[C@@H](n2cnc3cncnc32)[C@@H](O)[C@H]1O
- AC50 (Cytochrome P450 3A4): inconclusive

SMILES: COc1cc2oc(=O)c(Br)c(C)c2c(OC)c1OC
- EC50 [1]: 13 µM (inactive)
- EC50 [2]: > 79.4 µM (not active)
- EC50 [3]: 10 µM (not active)

SMILES: C=CCNS(=O)(=O)c1cccc2cc(C(=O)O)c(O)cc12
- AC50 (Cytochrome P450 2D6): 22.4 µM (inconclusive)
- AC50 (Cytochrome P450 3A4): inconclusive

SMILES: CCCCOC(=S)NC(=O)c1sc2ccccc2c1Cl
- AC50 (Cytochrome P450 3A4): inconclusive

SMILES: CCCCn1c(=N)n(CC(=O)c2ccc(Br)s2)c2ccccc21
- IC50 [24]: 1.42 µM (active)
- AC50 [25]: 7.45 µM (active)
- AC50 (INS1): 7.71 µM (active)
- AC50 (A-375): 30.3 µM (active)

SMILES: CC1CCN(S(=O)(=O)c2cccc(C(=O)NCc3cccs3)c2)CC1
- EC50 [26]: 2.96 µM (active)
- AC50 (Escherichia coli [27]): 40.9 µM (active)
- AC50 (Escherichia coli [28]): 106 µM (active)

SMILES: Cc1ccccc1-c1ccc(/C=N/c2c(C)n(C)n(-c3ccccc3)c2=O)o1
- EC50 [1]: > 79.4 µM (inactive)
- EC50 [2]: > 79.4 µM (not active)
- EC50 [3]: 47.6 µM (not active)

SMILES: C=CCN1C(=O)/C(=C/c2ccc(Br)s2)C(=O)NC1=S
- CC50 (Vero [8]): 24.2 µM (active)

SMILES: Cc1cc(C)n(CCC(=O)N/N=C/c2c(O)ccc3ccccc23)n1
- EC50 [29]: 11 µM (active)
- EC50 (cells [30]): 9.7 µM (active)
- EC50 [31]: 11 µM (active)
- EC50 [32]: 8.69 µM (active)
- EC50 (cells [33]): > 350 µM (not active)
- AC50 [25]: 45.1 µM (active)
- AC50 (INS1): 3.53 µM (active)
- AC50 (A-375): 52.3 µM (active)
- AC50 (Escherichia coli [28]): 40.1 µM (active)
